Measured values from patent EP0555938A1, “Use of phenoxyacetate derivatives for the restoration of neural function” (Albert ROLLAND S.A., priority 1992, dated 1993).

Experiments:
nerf sciatique [1] = assay: Speed of sensory reinnervation after freezing lesion of the sciatic nerve (latency of somesthetic evoked potential); type: in vivo, rat whistar mâle; conditions: 150 mg/kg, another batch of rats (Fig. 2)
Protocol: La vitesse de réinnervation sensitive après lésion du nerf sciatique et dégénérescence wallerienne a été étudiée chez le rat whistar mâle de 210 g ± 10 g. Le nerf sciatique droit a été lésé par congélation au moyen d'une cryode à cataracte portée à -170°C pendant 30 secondes en 3 points d'une même circonférence, située au tiers supérieur de la cuisse, à 90 ± 5 mm de la pénétration du nerf dans la région plantaire. Le nerf fémoris interne était excisé sur plusieurs cm. La récupération sensitive a été appréciée en mesurant la latence du potentiel évoqué somesthésique recueilli au niveau de l'aire primaire contralatérale et homolatérale, au moyen d'électrodes métalliques extra-durémériennes scéllées et laissées à demeure. La réponse était évoquée en stimulant le coussinet le plus interne de la sole plantaire droite au moyen d'un choc électrique de 5 mA délivré à courant constant pendant 2 ms toutes les 620 ms. Les réponses étaient moyennées de 500 à 2.000 fois et leurs latences mesurées avec une précision de ± 0,5 ms.
La latence de la réponse positive (P1) la plus précoce et à seuil le plus bas, a été mesurée et comparée chez trois groupes d'animaux aux jours J +25, +29, +33, +38, +43. Le groupe de témoins (n=11) a reçu par gavage 6 jours sur 7, 0,5 g/kg de gomme arabique. […]

nerf sciatique [2] = assay: Regeneration of the sciatic nerve after exposure to cold (plantar pain perception, Randal et Sellito apparatus); type: in vivo, rats Charles RIVER; conditions: 500 mg/kg P.U/jour
Protocol: L'étude est menée sur des lots de rats Charles RIVER (100-110 g), anesthésiés au Mébubarbital (30 mg/kg I.P).
Le nerf sciatique droit est isolé et on en pratique la congélation sur une longueur de 3 mm, au niveau du tiers supérieur de la cuisse. Cette congélation est réalisée par applications successives, pendant 30 secondes chacune, de petites masses métalliques adaptées sur un champ d'artère et plongées, préalablement, dans l'azote liquide.
Le traitement par les produits à étudier est pratique à partir du premier jour après l'opération (J₁), jusqu'à J₁₂.
La regénération nerveuse éventuelle est recherchée par la mesure de la perception douloureuse au niveau plantaire des deux pattes postérieures des animaux, en utilisant l'appareil de Randal et Sellito qui permet l'évaluation de la sensibilité locale par application d'un poids progressivement augmenté en fonction du temps.
Les résultats sont exprimés à partir des mesures réalisées sur chaque patte, 4 heures après le dernier traitement. La valeur de la regénération de la sensibilité, donc de la regénération nerveuse, est représentée par la différence de réponse au test de la patte au nerf lésé par rapport à la patte contralatérale intacte.
L'analyse statistique est faite sur les deux séries de valeurs par analyse de Kruskall-Wallis et test U de Mann-Whitney. […]

CC(C)Nc1ncccn1 [isaxonine]
modification dans la regénération des fibres nerveuses (nerf sciatique [1]): aucune modification sensible

CN(C)CCOC(=O)COc1ccc(Cl)cc1 [Méclofénoxate]
réactivité (perception douloureuse au niveau plantaire, patte lésée vs patte contralatérale) (nerf sciatique [2]; sixth day after operation, oral, in water): tendance à une meilleure réactivité
amélioration de la réactivité (regénération de la sensibilité) (nerf sciatique [2]; twelfth day after operation, 4 h after last treatment, oral (plate no. 3)): l'amélioration est significative
